Measured values: patent EP0318056A2, “Novel antibiotics and process for preparing the same” (MEIJI SEIKA KAISHA LTD., priority 1987, dated 1989)
In brackets after ≈: the same amount, converted by molar mass.

Legend:
[1] = test system: HL-60; assay: Cytotoxicity on tumor cells; assay type: cell-based; conditions: HL-60, human leukemia; 37°C, 72 hours, 5% CO₂; probit method; read-out: IC₅₀
[2] = test system: PC13; assay: Cytotoxicity on tumor cells; assay type: cell-based; conditions: PC-13; PC13, human lung cancer; 37°C, 72 hours, 5% CO₂; probit method; read-out: IC₅₀
[3] = test system: PC14; assay: Cytotoxicity on tumor cells; assay type: cell-based; conditions: PC-14; PC14, human lung cancer; 37°C, 72 hours, 5% CO₂; probit method; read-out: IC₅₀
[4] = test system: Meth-A; assay: Cytotoxicity on tumor cells; assay type: cell-based; conditions: mouse fibrosarcoma, 37°C, 72 hours, 5% CO₂, probit method, read-out: IC₅₀
[5] = mice, dose of 200 mg/kg (i.p.)
[6] = test system: P-388; assay: Cytotoxicity on tumor cells; assay type: cell-based; conditions: P388; P-388, mouse leukemia; 37°C, 72 hours, 5% CO₂; probit method; read-out: IC₅₀
[7] = test system: L-1210; assay: Cytotoxicity on tumor cells; assay type: cell-based; conditions: L1210; L-1210, mouse leukemia; 37°C, 72 hours, 5% CO₂; probit method; read-out: IC₅₀
[8] = test system: PC10; assay: Cytotoxicity on tumor cells; assay type: cell-based; conditions: PC10, human lung cancer; 37°C, 72 hours, 5% CO₂; probit method; read-out: IC₅₀
[9] = test system: B16; assay: Cytotoxicity on tumor cells; assay type: cell-based; conditions: B16, mouse melanoma; 37°C, 72 hours, 5% CO₂; probit method; read-out: IC₅₀
[10] = test system: K562; assay: Cytotoxicity on tumor cells; assay type: cell-based; conditions: K562, human leukaemia; 37°C, 72 hours, 5% CO₂; probit method; read-out: IC₅₀
[11] = test system: HMV-1; assay: Cytotoxicity on tumor cells; assay type: cell-based; conditions: HMV-1, human melanoma; 37°C, 72 hours, 5% CO₂; probit method; read-out: IC₅₀
[12] = test system: KB; assay: Cytotoxicity on tumor cells; assay type: cell-based; conditions: human nasopharynx, 37°C, 72 hours, 5% CO₂, probit method, read-out: IC₅₀
[13] = in vivo; conditions: mouse, ip
[14] = test system: Bacillus anthracis No. 119; assay: microbe, parasite or virus in culture; assay type: cell-based; conditions: NO.119, read-out: Minimum Inhibitory Concn.
[15] = test system: P-388 tumor cells; assay: Antitumor activity in mice intraperitoneally implanted with P-388 tumor cells; assay type: in vivo; conditions: P-388 mice
[16] = qualitative, in the named solvents
[17] = test system: Salmonella enteritidis No. 11; assay: Antimicrobial activity, serial dilution method on agar plate; assay type: cell-based; conditions: Salmonella enterica, read-out: Minimum Inhibitory Concn.
Procedure: (§1) The antimicrobial activity of SF2582 A and B on various test microorganisms shown in Table 2 below were determined by the serial dilution method on agar plate, and the minimum inhibitory concentrations (µg/ml) obtained are shown in Table 2 below.

[18] = test system: Proteus vulgaris OX 19; assay: as above; assay type: cell-based; conditions: OX19, read-out: Minimum Inhibitory Concn.
Procedure: as §1

[19] = test system: Escherichia coli No. 29; assay: as above; assay type: cell-based; conditions: read-out: Minimum Inhibitory Concn.
Procedure: as §1

[20] = test system: Salmonella typhi O-901-W; assay: as above; assay type: cell-based; conditions: Salmonella enterica, read-out: Minimum Inhibitory Concn.
Procedure: as §1

[21] = test system: Staphylococcus aureus 209P JC-1; assay: as above; assay type: cell-based; conditions: read-out: Minimum Inhibitory Concn.
Procedure: as §1

[22] = test system: Providencia rettgeri J-0026; assay: as above; assay type: cell-based; conditions: J0026, read-out: Minimum Inhibitory Concn.
Procedure: as §1

[23] = test system: Escherichia coli JC-2; assay: as above; assay type: cell-based; conditions: JC2, read-out: Minimum Inhibitory Concn.
Procedure: as §1

[24] = test system: Staphylococcus epidermidis 109; assay: as above; assay type: cell-based; conditions: read-out: Minimum Inhibitory Concn.
Procedure: as §1

[25] = test system: Shigella sonnei EW 33 Type 1; assay: as above; assay type: cell-based; conditions: EW33TYPE1, read-out: Minimum Inhibitory Concn.
Procedure: as §1

[26] = test system: Citrobacter freundii GN 346; assay: as above; assay type: cell-based; conditions: GN346, read-out: Minimum Inhibitory Concn.
Procedure: as §1

[27] = test system: Manthomonas maltophilia M-0627; assay: as above; assay type: cell-based; conditions: read-out: Minimum Inhibitory Concn.
Procedure: as §1

[28] = test system: Escherichia coli W 3630 RGN 823; assay: as above; assay type: cell-based; conditions: W3630RGN823, read-out: Minimum Inhibitory Concn.
Procedure: as §1

[29] = test system: Klebsiella pneumoniae 22 #3038; assay: as above; assay type: cell-based; conditions: read-out: Minimum Inhibitory Concn.
Procedure: as §1

[30] = test system: Staphylococcus aureus Smith S-424; assay: as above; assay type: cell-based; conditions: SMITHS424, read-out: Minimum Inhibitory Concn.
Procedure: as §1

[31] = test system: Proteus mirabilis GN 310; assay: as above; assay type: cell-based; conditions: GN310, read-out: Minimum Inhibitory Concn.
Procedure: as §1

[32] = test system: Pseudomonas aeruginosa MB-3829; assay: as above; assay type: cell-based; conditions: MB3829, read-out: Minimum Inhibitory Concn.
Procedure: as §1

[33] = test system: Serratia marcescens MB-3848; assay: as above; assay type: cell-based; conditions: MB3848, read-out: Minimum Inhibitory Concn.
Procedure: as §1

[34] = test system: Escherichia coli JR 661 W/677; assay: as above; assay type: cell-based; conditions: JR661W/677, read-out: Minimum Inhibitory Concn.
Procedure: as §1

[35] = test system: Morganella morganii Kono; assay: as above; assay type: cell-based; conditions: read-out: Minimum Inhibitory Concn.
Procedure: as §1

[36] = test system: Salmonella sp. D-0001; assay: as above; assay type: cell-based; conditions: SP.D0001, read-out: Minimum Inhibitory Concn.
Procedure: as §1

[37] = test system: Salmonella typhimurium LT-2; assay: as above; assay type: cell-based; conditions: Salmonella enterica, read-out: Minimum Inhibitory Concn.
Procedure: as §1

[38] = test system: Staphylococcus aureus No. 26; assay: as above; assay type: cell-based; conditions: read-out: Minimum Inhibitory Concn.
Procedure: as §1

[39] = test system: Enterococcus faecalis ATCC 8043; assay: as above; assay type: cell-based; conditions: ATCC8043, read-out: Minimum Inhibitory Concn.
Procedure: as §1

[40] = test system: Staphylococcus epidermidis ATCC 14990; assay: as above; assay type: cell-based; conditions: ATCC14990, read-out: Minimum Inhibitory Concn.
Procedure: as §1

[41] = test system: Klebsiella pneumoniae PCI 602; assay: as above; assay type: cell-based; conditions: PCI602, read-out: Minimum Inhibitory Concn.
Procedure: as §1

Q: With `COC(=O)C1(C)Nc2c(O)cc3c(c2C1=O)C(CO)CN3C(=O)c1cc2cc(OC)c(OC)c(OC)c2[nH]1` (stereo not shown) as the molecule, how does the IC50 [1] read?
A: 31.5 µg/mL (≈ 59.9 µM)

Q: What about the IC50 [2] of the same molecule?
A: 39.5 µg/mL (≈ 75.2 µM)

Q: What about the IC50 [3] of the same molecule?
A: > 50 µg/mL

Q: And the IC50 [4]?
A: 42 µg/mL (≈ 79.9 µM)

Q: What about the “death in acute toxicity test” value [5] of the same molecule?
A: no case of death

Q: And the IC50 [6]?
A: 9.4 µg/mL (≈ 17.9 µM)

Q: And the IC50 [7]?
A: 1.3 µg/mL (≈ 2.47 µM)

Q: What about the IC50 [8] of the same molecule?
A: 14.1 µg/mL (≈ 26.8 µM)

Q: And the IC50 [9]?
A: 5.1 µg/mL (≈ 9.7 µM)

Q: What about the IC50 [10] of the same molecule?
A: 35.6 µg/mL (≈ 67.7 µM)

Q: And the IC50 [11]?
A: 12.1 µg/mL (≈ 23 µM)

Q: What about the IC50 [12] of the same molecule?
A: 18 µg/mL (≈ 34.3 µM)

Q: Which results are given for `COC(=O)C1(C)Nc2c(O)cc3c(c2C1=O)C(CCl)CN3C(=O)c1cc2cc(OC)c(OC)c(OC)c2[nH]1` (stereo not shown) [SF2582 A]?
A: LD50 at 336 h [13]: 0.25 to 1 mg/kg; MIC [14]: 0.05 µg/mL (≈ 0.0919 µM); T/C (effect of improving incidence of survival) ([15]; dose 0.033 mg/kg intraperitoneally, once a day for consecutive 2 days): 114%; T/C (effect of improving incidence of survival) ([15]; dose 0.13 mg/kg intraperitoneally, once a day for consecutive 2 days): 148%; T/C (effect of improving incidence of survival) ([15]; dose 0.54 mg/kg intraperitoneally, once a day for consecutive 2 days): 128%; T/C (effect of improving incidence of survival) ([15]; dose 2.14 mg/kg intraperitoneally, once a day for consecutive 2 days): 80%; Solubility [16]: soluble in methanol, ethyl acetate, acetone, chloroform, or dimethyl sufoxide; insoluble in water or haxane; MIC [17]: 0.78 µg/mL (≈ 1.43 µM); MIC [18]: > 100 µg/mL; MIC [19]: 6.25 µg/mL (≈ 11.5 µM); MIC [20]: 3.13 µg/mL (≈ 5.75 µM); MIC [21]: < 0.025 µg/mL; MIC [22]: 25 µg/mL (≈ 46 µM); MIC [23]: 12.5 µg/mL (≈ 23 µM); MIC [24]: < 0.025 µg/mL; MIC [25]: 3.13 µg/mL (≈ 5.75 µM); MIC [26]: 3.13 µg/mL (≈ 5.75 µM); MIC [27]: 100 µg/mL (≈ 184 µM); MIC [28]: 6.25 µg/mL (≈ 11.5 µM); MIC [29]: 25 µg/mL (≈ 46 µM); MIC [30]: < 0.025 µg/mL; MIC [31]: 25 µg/mL (≈ 46 µM); MIC [32]: 25 µg/mL (≈ 46 µM); MIC [33]: 25 µg/mL (≈ 46 µM); MIC [34]: 12.5 µg/mL (≈ 23 µM); MIC [35]: 50 µg/mL (≈ 91.9 µM); MIC [36]: 12.5 µg/mL (≈ 23 µM); MIC [37]: 12.5 µg/mL (≈ 23 µM); MIC [38]: < 0.025 µg/mL; MIC [39]: 0.05 µg/mL (≈ 0.0919 µM); MIC [40]: 0.05 µg/mL (≈ 0.0919 µM); MIC [41]: 25 µg/mL (≈ 46 µM)

Q: Which results are given for `COC(=O)C1(C)Nc2c(O)cc3c(c2C1=O)CC(Cl)CN3C(=O)c1cc2cc(OC)c(OC)c(OC)c2[nH]1` (stereo not shown) [SF2582 B]?
A: LD50 at 336 h [13]: 1 to 2 mg/kg; MIC [14]: 0.05 µg/mL (≈ 0.0919 µM); T/C (effect of improving incidence of survival) ([15]; dose 0.16 mg/kg intraperitoneally, only once): 117%; T/C (effect of improving incidence of survival) ([15]; dose 0.63 mg/kg intraperitoneally, only once): 159%; T/C (effect of improving incidence of survival) ([15]; dose 2.5 mg/kg intraperitoneally, only once): 159%; T/C (effect of improving incidence of survival) ([15]; dose 10.0 mg/kg intraperitoneally, only once): 80%; Solubility [16]: soluble in methanol, ethyl acetate, acetone, chloroform, or dimethyl sufoxide; insoluble in water or haxane; MIC [17]: 1.56 µg/mL (≈ 2.87 µM); MIC [18]: 50 µg/mL (≈ 91.9 µM); MIC [19]: 12.5 µg/mL (≈ 23 µM); MIC [20]: 3.13 µg/mL (≈ 5.75 µM); MIC [21]: 0.05 µg/mL (≈ 0.0919 µM); MIC [22]: 25 µg/mL (≈ 46 µM); MIC [23]: 25 µg/mL (≈ 46 µM); MIC [24]: 0.05 µg/mL (≈ 0.0919 µM); MIC [25]: 6.25 µg/mL (≈ 11.5 µM); MIC [26]: 6.25 µg/mL (≈ 11.5 µM); MIC [27]: 100 µg/mL (≈ 184 µM); MIC [28]: 12.5 µg/mL (≈ 23 µM); MIC [29]: > 100 µg/mL; MIC [30]: < 0.025 µg/mL; MIC [31]: 25 µg/mL (≈ 46 µM); MIC [32]: 50 µg/mL (≈ 91.9 µM); MIC [33]: 25 µg/mL (≈ 46 µM); MIC [34]: 25 µg/mL (≈ 46 µM); MIC [35]: 50 µg/mL (≈ 91.9 µM); MIC [36]: 25 µg/mL (≈ 46 µM); MIC [37]: 25 µg/mL (≈ 46 µM); MIC [38]: < 0.025 µg/mL; MIC [39]: 0.1 µg/mL (≈ 0.184 µM); MIC [40]: 0.05 µg/mL (≈ 0.0919 µM); MIC [41]: 50 µg/mL (≈ 91.9 µM)
